According to ChEMBL document CHEMBL4732149, “Evaluation of the cellular protection by novel spiropyrazole compounds in dopaminergic cell death” (Eur J Med Chem, 2021):

Assays:
SH-SY5Y [1] = experiment: Neuroprotective activity against […]-induced cell death in human SH-SY5Y cells at 10 to 50 uM preincubated for 1 hr followed by […] stimulation and measured after 24 hrs by MTT assay relative to control; type: functional; settings: dose 10-50 µM, time 25 hrs
SH-SY5Y [2] = experiment: Cytotoxicity against human SH-SY5Y cells assessed as reduction in cell viability at 10 to 50 uM measured after 24 hrs by MTT assay; type: cell-based; settings: dose 10-50 µM
SH-SY5Y [3] = experiment: Neuroprotective activity against […]-induced cell death in human SH-SY5Y cells assessed as increase in cell viability preincubated for 1 hr followed by […] stimulation and measured after 24 hrs by MTT assay; type: functional, cell-based; settings: dose 10-50 µM, time 25.0 hrs
[4] = Cytotoxicity against human SH-SY5Y cells assessed as cell viability at 50 uM measured after 24 hrs by MTT assay relative to control; type: cell-based; settings: read-out: Activity
SH-SY5Y [5] = experiment: Neuroprotective activity against […]-induced cell death in human SH-SY5Y cells assessed as cell viability at 1 uM preincubated for 1 hr followed by […] stimulation and measured after 24 hrs by MTT assay relative to control; type: functional; settings: time 25 hrs, read-out: Activity

Structure (SMILES) | Activity (SH-SY5Y [1]) [%] | Activity (SH-SY5Y [2]) | Activity (SH-SY5Y [3]) | viability at 24 h, 50 µM [4] [%] | viability at 1 µM (SH-SY5Y [5]) [%]
NC1=NN(c2ccccc2)C(=O)C12[C@@H](c1cccc(Br)c1)c1c([nH]n(-c3ccccc3)c1=O)N[C@H]2c1cccc(Br)c1 (stereo in doubt; 3c-1) [listing 1 of 2 here] | 30.11 | Non-Toxic |  |  | 
Cc1ccc([C@H]2c3c([nH]n(-c4ccccc4)c3=O)N[C@@H](c3ccc(C)cc3)C23C(=O)N(c2ccccc2)N=C3N)cc1 (stereo partly drawn) | 28.66 | Non-Toxic | Dose-dependent effect |  | 
NC1=NN(c2ccccc2)C(=O)C12[C@@H](c1cccc(Br)c1)c1c([nH]n(-c3ccccc3)c1=O)N[C@H]2c1cccc(Br)c1 (stereo in doubt; 3c-2) [listing 1 of 2 here] |  |  | Dose-dependent effect |  | 
NC1=NN(c2ccccc2)C(=O)C12[C@@H](c1cccc([N+](=O)[O-])c1)c1c([nH]n(-c3ccccc3)c1=O)N[C@H]2c1cccc([N+](=O)[O-])c1 (stereo partly drawn) | 22.81 | Non-Toxic | Dose-dependent effect |  | 
NC1=NN(c2ccccc2)C(=O)C12[C@@H](c1ccc(Cl)cc1)c1c([nH]n(-c3ccccc3)c1=O)N[C@H]2c1ccc(Cl)cc1 (stereo partly drawn) | 20.05 | Non-Toxic | Dose-dependent effect | 84.9 | 
NC1=NN(c2ccccc2)C(=O)C12[C@@H](c1ccccc1)c1c([nH]n(-c3ccccc3)c1=O)N[C@H]2c1ccccc1 (stereo partly drawn) | 27.03 | Non-Toxic | Dose-dependent effect |  | 
NC1=NN(c2ccccc2)C(=O)C12[C@@H](c1cccs1)c1c([nH]n(-c3ccccc3)c1=O)N[C@H]2c1cccs1 (stereo partly drawn) | 18.43 | Non-Toxic | Dose-dependent effect |  | 
NC1=NN(c2ccccc2)C(=O)C12[C@@H](c1cccc(Br)c1)c1c([nH]n(-c3ccccc3)c1=O)N[C@H]2c1cccc(Br)c1 (stereo in doubt; 3c-1) [listing 2 of 2 here] |  |  | Dose-dependent effect |  | 
COc1ccc([C@H]2c3c([nH]n(-c4ccccc4)c3=O)N[C@@H](c3ccc(OC)cc3)C23C(=O)N(c2ccccc2)N=C3N)cc1 (stereo partly drawn) | 26.54 | Non-Toxic | Dose-dependent effect |  | 
NC1=NN(c2ccccc2)C(=O)C12[C@@H](c1ccccc1[N+](=O)[O-])c1c([nH]n(-c3ccccc3)c1=O)N[C@H]2c1ccccc1[N+](=O)[O-] (stereo partly drawn) | 20.21 | Non-Toxic | Dose-dependent effect |  | 
COc1cc(/C=C/C(=O)CC(=O)/C=C/c2ccc(O)c(OC)c2)ccc1O [CURCUMIN] |  |  |  |  | 80.7
NC1=NN(c2ccccc2)C(=O)C12[C@@H](c1cccc(Br)c1)c1c([nH]n(-c3ccccc3)c1=O)N[C@H]2c1cccc(Br)c1 (stereo in doubt; 3c-2) [listing 2 of 2 here] | 33.52 |  |  |  | 
